Experimental data taken from the NIST ThermoML archive (doi:10.1016/j.jct.2011.09.001).
± gives the expanded uncertainty stated by the source.

Experiments:
[1] = xn = mol fraction of the nth substance listed; details: 101 kPa, Liquid; for speed of sound: Sing-around technique in a fixed-path interferometer; for mass density: Vibrating tube method
[2] = refractive index (Na D-line) (dimensionless); xn = mol fraction of the nth substance listed; details: 101 kPa, Liquid, Standard Abbe refractometry

c1ccc2c(c1)CCCC2 [1,2,3,4-tetrahydronaphthalene] + CCCCCCCCCC
Details | mass density, [1] [kg/m3] | refractive index, [2] | speed of sound, [1] [m/s]
293.15 K, x1 = 0.1008 | 747.8 ± 0.3 | 1.4216 ± 0.0005 | 1269.3 ± 1.2
293.15 K, x1 = 0.2034 | 766.8 ± 0.3 | 1.4319 ± 0.0005 | 1285.2 ± 1.2
293.15 K, x1 = 0.3 | 786.3 ± 0.3 | 1.4422 ± 0.0005 | 1302.2 ± 1.2
293.15 K, x1 = 0.401 | 807.5 ± 0.3 | 1.4535 ± 0.0005 | 1320.2 ± 1.2
293.15 K, x1 = 0.494 | 828.5 ± 0.2 | 1.4648 ± 0.0005 | 1340.6 ± 1.2
293.15 K, x1 = 0.5949 | 852.8 ± 0.2 | 1.4778 ± 0.0005 | 1363.5 ± 1.2
293.15 K, x1 = 0.7009 | 880.2 ± 0.2 | 1.4925 ± 0.0005 | 1391.2 ± 1.2
293.15 K, x1 = 0.7974 | 907 ± 0.3 | 1.5071 ± 0.0005 | 1418.8 ± 1.2
293.15 K, x1 = 0.8997 | 937.9 ± 0.3 | 1.5239 ± 0.0005 | 1452.7 ± 1.2
293.15 K, x1 = 1 | 969.5 ± 0.2 | 1.5414 ± 0.0005 | 1489.5 ± 1.3
303.15 K, x1 = 0.1008 | 740.2 ± 0.3 | 1.4171 ± 0.0005 | 1230 ± 1.2
303.15 K, x1 = 0.2034 | 759.1 ± 0.3 | 1.4274 ± 0.0005 | 1246.1 ± 1.2
303.15 K, x1 = 0.3 | 778.6 ± 0.3 | 1.4376 ± 0.0005 | 1263.3 ± 1.2
303.15 K, x1 = 0.401 | 799.8 ± 0.3 | 1.449 ± 0.0005 | 1281.4 ± 1.2
303.15 K, x1 = 0.494 | 820.8 ± 0.3 | 1.4602 ± 0.0005 | 1301.9 ± 1.2
303.15 K, x1 = 0.5949 | 845.1 ± 0.2 | 1.4733 ± 0.0005 | 1324.9 ± 1.2
303.15 K, x1 = 0.7009 | 872.4 ± 0.2 | 1.488 ± 0.0005 | 1352.5 ± 1.2
303.15 K, x1 = 0.7974 | 899.1 ± 0.3 | 1.5026 ± 0.0005 | 1380.1 ± 1.2
303.15 K, x1 = 0.8997 | 930 ± 0.3 | 1.5193 ± 0.0005 | 1413.8 ± 1.2
303.15 K, x1 = 1 | 961.6 ± 0.2 | 1.5367 ± 0.0005 | 1450.1 ± 1.2
313.15 K, x1 = 0.1008 | 732.6 ± 0.3 | 1.4126 ± 0.0005 | 1191.3 ± 1.2
313.15 K, x1 = 0.2034 | 751.5 ± 0.3 | 1.4229 ± 0.0005 | 1207.6 ± 1.2
313.15 K, x1 = 0.3 | 770.9 ± 0.3 | 1.4331 ± 0.0005 | 1224.9 ± 1.2
313.15 K, x1 = 0.401 | 792.1 ± 0.3 | 1.4445 ± 0.0005 | 1243.1 ± 1.2
313.15 K, x1 = 0.494 | 812.9 ± 0.3 | 1.4556 ± 0.0005 | 1263.8 ± 1.2
313.15 K, x1 = 0.5949 | 837.3 ± 0.3 | 1.4688 ± 0.0005 | 1286.8 ± 1.2
313.15 K, x1 = 0.7009 | 864.7 ± 0.2 | 1.4835 ± 0.0005 | 1314.5 ± 1.2
313.15 K, x1 = 0.7974 | 891.4 ± 0.3 | 1.498 ± 0.0005 | 1342.1 ± 1.2
313.15 K, x1 = 0.8997 | 922.1 ± 0.3 | 1.5148 ± 0.0005 | 1375.5 ± 1.2
313.15 K, x1 = 1 | 953.7 ± 0.2 | 1.5321 ± 0.0005 | 1411.5 ± 1.2
323.15 K, x1 = 0.1008 | 724.9 ± 0.3 | 1.4081 ± 0.0005 | 1153.1 ± 1.2
323.15 K, x1 = 0.2034 | 743.8 ± 0.3 | 1.4183 ± 0.0005 | 1169.6 ± 1.2
323.15 K, x1 = 0.3 | 763.2 ± 0.3 | 1.4285 ± 0.0005 | 1187.1 ± 1.2
323.15 K, x1 = 0.401 | 784.3 ± 0.3 | 1.4399 ± 0.0005 | 1205.4 ± 1.2
323.15 K, x1 = 0.494 | 805.2 ± 0.3 | 1.4511 ± 0.0005 | 1226.2 ± 1.2
323.15 K, x1 = 0.5949 | 829.5 ± 0.3 | 1.4642 ± 0.0005 | 1249.3 ± 1.2
323.15 K, x1 = 0.7009 | 856.8 ± 0.3 | 1.479 ± 0.0005 | 1277.1 ± 1.2
323.15 K, x1 = 0.7974 | 883.6 ± 0.3 | 1.4933 ± 0.0005 | 1304.6 ± 1.2
323.15 K, x1 = 0.8997 | 914.2 ± 0.3 | 1.5102 ± 0.0005 | 1337.9 ± 1.2
323.15 K, x1 = 1 | 945.7 ± 0.2 | 1.5274 ± 0.0005 | 1373.6 ± 1.2
333.15 K, x1 = 0.1008 | 717.2 ± 0.3 | 1.4035 ± 0.0005 | 1115.5 ± 1.2
333.15 K, x1 = 0.2034 | 736 ± 0.3 | 1.4137 ± 0.0005 | 1132.1 ± 1.2
333.15 K, x1 = 0.3 | 755.4 ± 0.3 | 1.4238 ± 0.0005 | 1149.8 ± 1.2
333.15 K, x1 = 0.401 | 776.5 ± 0.3 | 1.4355 ± 0.0005 | 1168.2 ± 1.2
333.15 K, x1 = 0.494 | 797.3 ± 0.3 | 1.4463 ± 0.0005 | 1189.2 ± 1.2
333.15 K, x1 = 0.5949 | 821.6 ± 0.3 | 1.4597 ± 0.0005 | 1212.4 ± 1.2
333.15 K, x1 = 0.7009 | 849 ± 0.3 | 1.4744 ± 0.0005 | 1240.2 ± 1.2
333.15 K, x1 = 0.7974 | 875.7 ± 0.3 | 1.4887 ± 0.0005 | 1267.8 ± 1.2
333.15 K, x1 = 0.8997 | 906.3 ± 0.3 | 1.5055 ± 0.0005 | 1300.9 ± 1.2
333.15 K, x1 = 1 | 937.8 ± 0.2 | 1.5228 ± 0.0005 | 1336.4 ± 1.2
343.15 K, x1 = 0.1008 | 709.3 ± 0.3 | 1.3988 ± 0.0005 | 1078.4 ± 1.2
343.15 K, x1 = 0.2034 | 728.2 ± 0.3 | 1.4092 ± 0.0005 | 1095.2 ± 1.2
343.15 K, x1 = 0.3 | 747.6 ± 0.3 | 1.4192 ± 0.0005 | 1113.2 ± 1.2
343.15 K, x1 = 0.401 | 768.7 ± 0.3 | 1.4308 ± 0.0005 | 1131.6 ± 1.2
343.15 K, x1 = 0.494 | 789.5 ± 0.3 | 1.4418 ± 0.0005 | 1152.9 ± 1.2
343.15 K, x1 = 0.5949 | 813.7 ± 0.3 | 1.4549 ± 0.0005 | 1176.1 ± 1.2
343.15 K, x1 = 0.7009 | 841.1 ± 0.3 | 1.4697 ± 0.0005 | 1204.1 ± 1.2
343.15 K, x1 = 0.7974 | 867.7 ± 0.3 | 1.4841 ± 0.0005 | 1231.5 ± 1.2
343.15 K, x1 = 0.8997 | 898.4 ± 0.3 | 1.5008 ± 0.0005 | 1264.7 ± 1.2
343.15 K, x1 = 1 | 929.8 ± 0.2 | 1.518 ± 0.0005 | 1299.8 ± 1.2
